According to paper PMC6920794, “Evaluation of Novel Chalcone-Thiosemicarbazones Derivatives as Potential Anti-Leishmania amazonensis Agents and Its HSA Binding Studies” (Biomolecules, 2019):
Like-named read-outs stand apart in the source and are kept apart here.

Tests used:
[1] = molecular target: T1, human serum albumin (HSA) (Homo sapiens, UniProt P02768); experiment: HSA binding, steady-state fluorescence quenching; conditions: for KSV Stern-Volmer quenching constant: PBS pH 7.4
T1 construct: purchased Sigma Aldrich, St. Louis, MO, USA
T1 sequence (P02768 25-609): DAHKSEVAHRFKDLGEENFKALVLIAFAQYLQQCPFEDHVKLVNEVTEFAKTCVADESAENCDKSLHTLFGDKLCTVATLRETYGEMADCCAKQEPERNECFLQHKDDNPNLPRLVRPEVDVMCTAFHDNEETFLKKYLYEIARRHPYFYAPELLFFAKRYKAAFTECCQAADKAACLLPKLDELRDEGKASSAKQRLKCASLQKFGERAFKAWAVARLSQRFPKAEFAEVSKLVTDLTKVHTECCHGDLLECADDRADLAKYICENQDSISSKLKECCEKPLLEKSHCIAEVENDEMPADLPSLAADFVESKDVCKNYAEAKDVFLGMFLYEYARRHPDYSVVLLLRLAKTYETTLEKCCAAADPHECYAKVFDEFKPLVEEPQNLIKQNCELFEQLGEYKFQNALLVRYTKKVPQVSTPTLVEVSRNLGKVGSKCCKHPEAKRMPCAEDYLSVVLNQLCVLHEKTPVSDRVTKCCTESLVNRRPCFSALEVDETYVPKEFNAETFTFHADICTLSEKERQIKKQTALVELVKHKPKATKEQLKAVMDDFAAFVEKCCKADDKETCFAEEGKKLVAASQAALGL
Description: The chemicals HSA and PBS buffer were purchased from Sigma Aldrich, St. Louis, MO, USA and the pH of buffer solution was checked (pH = 7.40). Jasco J-815 optical spectrometer (Jasco Easton, MD, USA) was used as equipment for steady-state fluorescence and circular dichroism (CD) spectra measurements and a thermostatic cuvette holder Jasco PFD-425S15F (Jasco Easton, MD, USA) was applied for control of temperature in the quartz cell (1.0 cm optical path). All spectra were recorded as the average of three scans with appropriate background corrections. For steady-state fluorescence measurements it was applied 305–450 nm range as emission wavelength (λexc = 295 nm) at 289K, 296K, 303K and 310K. First, it was recorded spectra for HSA solution (1.00 × 10^−5 M, in PBS) and then it was added manually the compound 5e, achieving final ligand concentrations of 0.35; 0.70; 1.05; 1.40; 1.74; 2.09; 2.44; and 2.78 × 10^−5 M.
In order to delete the possible absorption contribution of the compound 5e in the steady-state fluorescence results, inner filter effect was applied, according to the Equation 2 [33]:(2) Fcor=FObs10^[Aex+Aem/2] where Fcor and Fobs are the corrected and observed fluorescence intensity values, while Aex and Aem represent the absorbance value at the excitation (λ = 295 nm: ε = 6,235 cm^−1M^−1 in PBS) and emission wavelengths (λ = 340 nm: ε = 4,550 cm^−1M^−1 in PBS).
The steady-state fluorescence results for the interaction HSA:5e were analyzed according to Stern-Volmer (Equation 3), double logarithmic (Equation 4), van’t Hoff (Equation 5) and Gibbs’ free energy (Equation 6) approximations:(3) F0/F=1+Ksv[Q]=1+kqτ0[Q] (4) log(F0−F/F)=logKa+nlog[Q] (5) lnKa=−ΔH°/RT+ΔS°/R (6) ΔG°=ΔH°−TΔS° where F0 and F are the steady-state fluorescence intensities of HSA in the absence and presence of 5e, respectively. [Q], KSV and kq are the 5e concentration, Stern-Volmer quenching constant and bimolecular quenching rate constant, respectively. τ0 is the experimental fluorescence lifetime of HSA in the absence 5e (5.98 ± 0.15) × 10^−9 s. Ka and ƒ are the binding constant and fraction of the initial fluorescence intensity corresponding to the fluorophore which is accessible by the quencher (f ≈ 1.00), respectively. ΔH°, ΔS° and ΔG° are the enthalpy, entropy and Gibbs’ free energy change, respectively. T and R are the temperature (289 K, 296 K, 303 K and 310 K) and gas constant (8.3145 Jmol^−1K^−1), respectively. All quantitative values were expressed as “± SD” (obtained through three scans).

[2] = tested on: L. amazonensis intracellular amastigotes; experiment: Intracellular amastigotes assay in infected macrophages; type: cell-based, Leishmania amazonensis
Description: Peritoneal macrophages were obtained BALB/c mice with cold Roswell Park Memorial Institute (RPMI) 1640 medium (Sigma Aldrich, St. Louis, MO, USA) supplemented as above. The cell suspension was adjusted to 1 × 10^6 macrophage/mL and incubated in a LAB-TEK 8-chamber slide (Nunc, Roskilde, Denmark) at 310K and 5% CO2 for 1 h. Non-adherent cells were removed and stationary-phase L. amazonensis promastigotes were added at a 3:1 parasite/macrophage ratio. The cultures were incubated for a further 4 h, and free parasites were removed. The chambers were washed, and the monolayers were incubated with the compounds for 48 h. Infected macrophages incubated only in the culture medium were used as controls to compare with the infected treated macrophages. […] The cultures were fixed in methanol and stained with the hematological system Instant Prov (Newprov®, Curitiba, Brazil). The slides were examined by light microscopy, and the number of infected macrophages and the mean number of parasites per macrophage were determined in 100 cells counted. The experiments were performed twice in triplicate. The percentage of infected macrophages was calculated by dividing the number of infected macrophages by the total number of macrophages (infected and uninfected) counted on the slides, multiplied by 100. To determine the infection index, the percentage of infected macrophages was multiplied by the mean number of parasites per macrophage. The percentage inhibition of infection was calculated by multiplying the difference between the infection index of the control and the compound by 100 and dividing by the infection index (IF) of the control using the Equation (1):IF = % infected cells × amastigotes number/total number of macrophages(1) The IC50 ± SD (SD: standard deviation) values were obtained by a sigmoidal model using Origin 6.0 with statistical error limits up to 10%. All tests were conducted in duplicate for each concentration, and two independent assays were performed.

In the case of `NC(=S)N/N=C(\C=C\c1ccc(Cl)cc1)c1ccccc1` [Compound 5e, (1E,2E)-3-(4′-chlorophenyl)-1-phenylprop-2-en-1-one thiosemicarbazone], the “n number of binding sites” value [1] is reported as ~ 1, the “kq bimolecular quenching rate constant” value ([1]; 289 K) is reported as 4.15e+12 M⁻¹ s⁻¹ and the “n number of binding sites” value ([1]; 289 K) is reported as 1.05 ± 0.01. For the same compound, the “ΔG° Gibbs' free energy change” value ([1]; 289 K) was −26.1 kJmol^−1, the “KSV Stern-Volmer quenching constant” value ([1]; 289 K) was 2.48 ± 0.52 ×10^4 M^−1 and the Kd ([1]; 289 K, double logarithmic approximation, read-out: Ka binding constant (converted)) was 19.4 µM. The “kq bimolecular quenching rate constant” value ([1]; 296 K) was 4.16e+12 M⁻¹ s⁻¹, the “n number of binding sites” value ([1]; 296 K) was 1.07 ± 0.01 and the “ΔG° Gibbs' free energy change” value ([1]; 296 K) was −26.6 kJmol^−1. The “KSV Stern-Volmer quenching constant” value ([1]; 296 K) was 2.49 ± 0.50 ×10^4 M^−1, the Kd ([1]; 296 K, double logarithmic approximation, read-out: Ka binding constant (converted)) was 20.6 µM and the “kq bimolecular quenching rate constant” value ([1]; 303 K) was 4.34e+12 M⁻¹ s⁻¹. For the same compound, the “n number of binding sites” value ([1]; 303 K) was 1.06 ± 0.01, the “ΔG° Gibbs' free energy change” value ([1]; 303 K) was −27.1 kJmol^−1 and the “KSV Stern-Volmer quenching constant” value ([1]; 303 K) was 2.59 ± 0.51 ×10^4 M^−1. For the same compound, the Kd ([1]; 303 K, double logarithmic approximation, read-out: Ka binding constant (converted)) was 21.9 µM, the “kq bimolecular quenching rate constant” value ([1]; 310 K) was 4.6e+12 M⁻¹ s⁻¹ and the “n number of binding sites” value ([1]; 310 K) was 1.05 ± 0.01. The “ΔG° Gibbs' free energy change” value ([1]; 310 K) was −27.6 kJmol^−1, the “KSV Stern-Volmer quenching constant” value ([1]; 310 K) was 2.75 ± 0.33 ×10^4 M^−1 and the Kd ([1]; 310 K, double logarithmic approximation, read-out: Ka binding constant (converted)) was 22.8 µM. The Kd ([1]; all temperatures, read-out: Ka binding constant (order of magnitude)) was about 100 µM, the “decrease of HSA fluorescence emission” value ([1]; maximum addition of the ligand 2.78 × 10^−5 M, HSA 1.00 × 10^−5 M) was “about 50%” and the “ΔH° enthalpy change” value ([1]; van't Hoff plot, 289–310 K) was −5.79 ± 0.27 kJmol^−1. The “ΔS° entropy change” value ([1]; van't Hoff plot, 289–310 K) was 7.02 ± 0.09 ×10^−2 kJmol^−1K^−1, the IC50 ([2]; Leishmania amazonensis, Peritoneal macrophage, in Mus musculus, 48 h, L. amazonensis-infected murine peritoneal macrophages, 48 h of culture) was 4.47 ± 0.42 µM and the “Selectivity Index (SI)” value ([2]; SI = LD50/IC50 intracellular amastigotes) was 7.27.
